Reference: patent publication US20090163551A1, “Compositions and Methods for Treating Diseases” (Novartis AG, priority 2006, published 2009)
“Also recorded” adds a separate entry of the source. Structures can show the parent of a compound that is named as a salt.

Tests used:
[1] = system: circular muscle strips from the gastric antrum; assay: Contractile responses to EFS of enteric nerves in antral muscle strips of pretreated indomethacin rats; format: in vivo, rat; conditions: for Regression Analysis Slope: linear regression of EFS (0.5 ms, 1-15 Hz) frequency-response, indomethacin-treated rats, mean ± SEM, 5-6 rats per group
5-HT receptors = assay: 5-HT concentration-response curve in antral circular muscle strips; format: cell-based, rat; conditions: 5-HT contraction
[2] = system: circular muscle strips from the gastric antrum; assay: Contractile responses to carbachol in antral circular muscle strips of pretreated indomethacin rats; format: in vivo, rat; conditions: strips from indomethacin-treated rats pretreated with tegaserod 1 mg/kg, omeprazole 20 mg/kg; vs vehicle
[3] = system: circular muscle strips from the gastric antrum; assay: Contractile responses to 5-HT in antral circular muscle strips of pretreated indomethacin rats; format: in vivo, rat; conditions: strips from indomethacin-treated rats pretreated with tegaserod 1 mg/kg, omeprazole 20 mg/kg; vs vehicle
[4] = system: myeloperoxidase (MPO) activity; assay: Mucosal myeloperoxidase activity after indomethacin; format: in vivo, rat; conditions: rats; tegaserod 1 mg/kg, omeprazole 20 mg/kg i.p. pretreatment; glandular stomach 6 h after indomethacin 50 mg/kg
Protocol: (§1) Prior to the experiment the rats were fasted overnight with free access to water. On the day of experiment the rats received intragastric gavage of 50 mg/kg indomethacin dissolved in 2% NaCO3 and brought to a volume of 1.5 mL in saline (pH 6.8). Indomethacin was given at 7:30 A.M. and the animals were then placed in their home cage with free access to food and water. The rats were euthanized 6 h post-indomethacin infusion, the stomach was isolated and placed in Ca^2+-free Krebs buffer aerated with 95% O2 and 5% CO2.
Drugs were prepared fresh for each experiment and stored at 4° C. between treatments. […] A separate control group received treatment with propylene glycol only. […]
(§2) The stomach was cut along the small curvature, cleansed of ingested food and the fundus was separated from the glandular portion of the stomach. […] The total length of hemorrhagic lesions, which were approximately 1 mm wide, was measured and served as an index of ulceration. […]
Following dissection, the mucosal tissue was snap-frozen in liquid nitrogen and stored at −80° C. and MPO activity was assayed simultaneously. […] MPO activity was expressed as equivalent to the activity of the relative standard (ng of HRP) converting the same amount of TMB substrate for 10 min at room temperature. […]

[5] = system: rat model of indomethacin-induced gastric mucosal ulceration; assay: Indomethacin-induced gastric mucosal ulceration (ulceration index); format: in vivo; conditions: rats; tegaserod 1 mg/kg, omeprazole 20 mg/kg i.p. b.i.d. one day before and 30 min prior to indomethacin 50 mg/kg intragastric; 6 h post-indomethacin; vs vehicle
Protocol: Male Sprague-Dawley rats (Charles River, Laboratories, Wilmington, Mass.) weighing 250-300 g were housed two in a cage at standard conditions (21-23° C., controlled humidity, 12 hour light/dark cycle). The animals were allowed to acclimate for one week prior to initiation of drug treatment. The experimental procedures were approved by the Animal Care and Use Committees at the V.A. Medical Center and the University of Oklahoma Health Science Center, Oklahoma City, Okla.
as §1
Drugs were prepared fresh for each experiment and stored at 4° C. between treatments. […]
as §2

[6] = system: circular muscle strips from the gastric antrum; assay: Contractile response to KCl (80 mM) in antral circular muscle strips of pretreated indomethacin rats; format: in vivo, rat; conditions: strips from indomethacin-treated rats pretreated with tegaserod 1 mg/kg, omeprazole 20 mg/kg, vs vehicle
[7] = system: smooth muscle muscarinic receptors; assay: Carbachol concentration-response curve in antral circular muscle strips; format: cell-based, rat; conditions: carbachol contraction
enteric nerves = format: cell-based, rat
[8] = second group not named in the sentence (indomethacin-treated rats receiving vehicle)
[9] = EFS 0.5 ms, 1-15 Hz, strips from indomethacin-treated rats pretreated with tegaserod 1 mg/kg, omeprazole 20 mg/kg
[10] = strips from vehicle pretreated rats receiving indomethacin

`COc1ccc2[nH]c([S+]([O-])Cc3ncc(C)c(OC)c3C)nc2c1` (stereo not drawn) [Omeprazole, omeprazole] was tested, and the “Regression Analysis Slope” value [1] was 78.8 ± 9.5.
In the case of `NCCc1c[nH]c2ccc(O)cc12` [5-HT, 5-hydroxytryptamine creatinine sulfate], the Hill slope (5-HT receptors; [8]) is reported as 0.65, the “log EC50” value (5-HT receptors; [8]) is reported as 6.839 and the Hill slope (5-HT receptors; strips from naïve rats) is reported as 0.48. For the same molecule, the “log EC50” value (5-HT receptors; strips from naïve rats) was 6.299.
With `CCCCCNC(=N)NN=Cc1c[nH]c2ccc(OC)cc12` [Tegaserod, 3-(5-methoxy-1H-indol-3-ylmethylene)-N-pentylcarbazimidamide] the maximal carbachol-induced contraction [2] was “not significantly different”, the “increase of contractile responses to EFS” value [1, 9] was “prevented the increase of contractile responses to EFS” and the “linear frequency-response relationship of EFS contractile responses” value [1, 9] was “preserved the linear frequency-response relationship; also recorded: protected the linear increase in the amplitude of contractile responses”. The “Indomethacin-induced hypercontractility (KCl, carbachol, 5-HT, EFS; overall statement)” value ([1]; antral circular muscle strips, tegaserod 1 mg/kg, omeprazole 20 mg/kg pretreatment) was “significantly attenuated”, the “Regression Analysis Slope” value [1] was 51.9 ± 5.1 and the “amplitude of the maximal response to 5-HT” value [3] was “significant reduction”. For the same molecule, the “mucosal MPO activity” value [4] was “reduced gastric ulceration and mucosal inflammation; also recorded: inhibited MPO activity to levels that were not significantly different from those in naïve animals”, the “formation of gastric lesions (ulceration index)” value [5] was “reduced gastric ulceration; also recorded: significantly reduced the formation of gastric lesions” and the “amplitude of KCl-induced contractions” value [6] was “showed a tendency to prevent the development of hypercontractile responses to KCl, however in the effect of neither of the drugs reached statistical significance”.
In the case of `C[N+](C)(C)CCOC(N)=O.[Cl-]` [carbachol, carbamylcholine chloride], the Hill slope ([7]; strips from naïve rats) is reported as 1.07, the Hill slope [7, 10] is reported as 1.11 and the “log EC50” value [7, 10] is reported as −7.32.
`NC1=N[C@H](O)[C@H]2[C@H]3O[C@]4(O)O[C@@H]([C@@H](O)[C@@]2(N1)[C@@H]4O)[C@]3(O)CO` [tetrodotoxin] was tested, and the “inhibitory and excitatory responses to EFS” value (enteric nerves) was “abolished”.
